# Results: patent publication US20070066566A1, “19,23,24,25,26,27-Hexanor-1alpha-hydroxyvitamin D3” (Wisconsin Alumni Research Foundation, priority 2005, published 2007)
# Columns and labels:
# [1] = tested on: Human promyelocytic leukemia (HL60) cells; experiment: HL-60 differentiation (nitro blue tetrazolium reduction); assay type: cell-based; details: FIG. 2
# Method: FIG. 2 is a graph comparing the percent HL-60 cell differentiation as a function of the concentration of NP9 with that of 1,25(OH)2D3.
# The study drugs were dissolved in ethanol and the concentrations determined using UV spectrophotometry. Serial dilutions were prepared so that a range of drug concentrations was tested without changing the final concentration of ethanol (≦0.2%) present in the cell cultures.
# Human promyelocytic leukemia (HL60) cells were grown in RPMI-1640 medium containing 10% fetal bovine serum. The cells were incubated at 37° C. in the presence of 5% CO2.
# HL60 cells were plated at 1.2×10^5 cells/mL. Eighteen hours after plating, cells in duplicate were treated with drug. Four days later, the cells were harvested and a nitro blue tetrazolium reduction assay was performed (Collins et al., 1979; J. Exp. Med. 149:969-974). The percentage of differentiated cells was determined by counting a total of 200 cells and recording the number that contain intracellular black-blue formazan deposits. Verification of differentiation to monocytic cells was determined by measuring phagocytic activity.
# [2] = biological target: T1, full-length recombinant rat vitamin D receptor (Rattus norvegicus, UniProt P13053); experiment: Vitamin D receptor binding, competition with [3H]-1,25-(OH)2-D3; details: FIG. 1
# T1 construct: Full-length recombinant rat receptor was expressed in E. coli BL21(DE3) Codon Plus RIL cells; His tag (C); made in house; host or cells: E. coli BL21(DE3) Codon Plus RIL
# T1 sequence (P13053 1-423): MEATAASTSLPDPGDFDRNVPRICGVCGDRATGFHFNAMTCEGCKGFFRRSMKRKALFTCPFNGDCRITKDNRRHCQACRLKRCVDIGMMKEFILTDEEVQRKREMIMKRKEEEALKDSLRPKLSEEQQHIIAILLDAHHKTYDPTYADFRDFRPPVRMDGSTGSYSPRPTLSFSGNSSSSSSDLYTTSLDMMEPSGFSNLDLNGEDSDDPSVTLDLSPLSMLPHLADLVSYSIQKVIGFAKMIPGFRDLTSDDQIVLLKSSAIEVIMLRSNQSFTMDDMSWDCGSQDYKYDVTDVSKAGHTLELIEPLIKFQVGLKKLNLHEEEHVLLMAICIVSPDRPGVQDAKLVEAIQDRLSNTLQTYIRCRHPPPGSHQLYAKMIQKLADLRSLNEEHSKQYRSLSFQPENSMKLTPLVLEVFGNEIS
# From the text: FIG. 1 is a graph comparing the relative activity of NP9 and 1,25(OH)2D3 to compete for binding with [^3H]-1,25-(OH)2-D3 to the full-length recombinant rat vitamin D receptor.
# Full-length recombinant rat receptor was expressed in E. coli BL21(DE3) Codon Plus RIL cells and purified to homogeneity using two different column chromatography systems. The first system was a nickel affinity resin that utilizes the C-terminal histidine tag on this protein. The protein that eluted from this resin was further purified using ion exchange chromatography (S-Sepharose Fast Flow). Aliquots of the purified protein were quick frozen in liquid nitrogen and stored at −80° C. until use. For use in binding assays, the protein was diluted in TEDK50 (50 mM Tris, 1.5 mM EDTA, pH 7.4, 5 mM DTT, 150 mM KCl) with 0.1% Chaps detergent. […]
# Unlabeled ligands were dissolved in ethanol and the concentrations were determined using UV spectrophotometry (1,25(OH)2D3: molar extinction coefficient=18,200 and λmax=265 nm). […]
# Radiolabeled and unlabeled ligands were added to 100 mcl of the diluted protein at a final ethanol concentration of ≧10%, mixed and incubated overnight on ice to reach binding equilibrium. […] Total binding was determined from the tubes containing only radiolabeled ligand.
# [3] = tested on: 24-hydroxylase (24Ohase) gene promoter; experiment: In vitro transcription assay (luciferase reporter in ROS 17/2.8 cells); assay type: cell-based; details: 24Ohase promoter-luciferase, FIG. 3
# Method: FIG. 3 is a graph comparing the in vitro transcription activity of NP9 with that of 1,25(OH)2D3.
# Transcription activity was measured in ROS 17/2.8 (bone) cells that were stably transfected with a 24-hydroxylase (24Ohase) gene promoter upstream of a luciferase reporter gene (Arbour et al., 1998). Cells were given a range of doses. Sixteen hours after dosing the cells were harvested and luciferase activities were measured using a luminometer. RLU=relative luciferase units.
# Antagonism was tested by adding a combination of 1,25(OH)2D3 and the compound in the same well keeping the final ethanol concentration the same.
# Sprague-Dawley rats [4] = experiment: Intestinal calcium transport (everted gut sac method); assay type: in vivo, rat; details: four consecutive ip doses, FIG. 4A
# From the text: (§1) FIGS. 4A and 4B are graphs comparing intestinal calcium transport (4A) and bone calcium mobilization (4B) of NP9 and 1,25(OH)2D3.
# (§2) Male, weanling Sprague-Dawley rats were placed on Diet 11 (Suda et al. J. Nutr. 100:1049, 1970) (0.47% Ca) diet+vitamins AEK for one week followed by Diet 11 (0.02% Ca)+AEK for 3 weeks. The rats were then switched to a diet containing 0.47% Ca for one week followed by two weeks on a diet containing 0.02% Ca. Dose administration began during the last week on 0.02% calcium diet. Four consecutive ip doses were given approximately 24 hours apart. Twenty-four hours after the last dose, blood was collected from the severed neck and the concentration of serum calcium was determined as a measure of bone calcium mobilization. The first 10 cm of the intestine was also collected for intestinal calcium transport analysis using the everted gut sac method. Antagonism was tested by administering a combination of 1,25(OH)2D3 and the compound to the animal simultaneously.
# Sprague-Dawley rats [5] = experiment: Bone calcium mobilization (serum calcium); assay type: in vivo, rat; details: four consecutive ip doses, FIG. 4B
# From the text: as §1, §2
structure (smiles),measurement,setting,value
"CC(C)[C@H]1CC[C@H]2/C(=C/C=C3C[C@@H](O)C[C@H](O)C3)CCC[C@]12C [formula 1B, 19,23,24,25,26,27-Hexanor-1α-hydroxyvitamin D3]","activity in inducing differentiation of HL-60 cells compared to 1,25-(OH)2D3",[1],"less but still significant activity compared to 1,25-(OH)2D3"
same,"binding to the vitamin D receptor relative to 1,25-(OH)2D3",[2],"does not bind to the vitamin D receptor as strongly as the native hormone 1,25-(OH)2D3"
same,"activity in causing transcription compared to 1,25-(OH)2D3",[3],"does not show as much activity in causing transcription as 1,25-(OH)2D3"
same,intestinal calcium transport activity,Sprague-Dawley rats [4],no measurable
same,bone calcium mobilizing activity,Sprague-Dawley rats [5],no measurable bone calcium mobilizing activity
